≈ marks a conversion by molar mass, not a printed value. Calls of active or inactive are those of the source. The calls are words filed in the database; no cut-off is given here.
Key:
[1] = Antioxidant activity assessed as inhibition of AAPH-induced lipid peroxidation at 200 ug/ml after 3 hrs by TBA-MDA test; type: physicochemical
[2] = Antioxidant activity assessed as inhibition of AAPH-induced lipid peroxidation after 3 hrs by TBA-MDA test; type: physicochemical
Pseudomonas aeruginosa = test: Antibacterial activity against Pseudomonas aeruginosa ATCC 9027 by broth microdilution method; type: functional
[3] = system: Salmonella enterica subsp. enterica serovar Abony; test: Antibacterial activity against Salmonella abony NCTC 6017 by broth microdilution method; type: functional
Bacillus spizizenii = test: Antibacterial activity against Bacillus subtilis ATCC 6633 by broth microdilution method; type: functional
Escherichia coli = test: Antibacterial activity against Escherichia coli ATCC 8739 by broth microdilution method; type: functional
Staphylococcus aureus = test: Antibacterial activity against Staphylococcus aureus ATCC 6538 by broth microdilution method; type: functional

Compound | inhibition (INH) [1] [%] | IC50 [2] [µg/mL] | MIC (Pseudomonas aeruginosa) | MIC [3] | MIC (Bacillus spizizenii) | MIC (Escherichia coli) | MIC (Staphylococcus aureus)
O=c1c(O)c(-c2ccc(O)c(O)c2)oc2cc(O)cc(O)c12 [QUERCETIN] | 91.12 | 10.47 (≈ 34.6 µM) |  |  |  |  | 
O=C1O[C@H]([C@@H](O)CO)C(O)=C1O [ASCORBIC ACID] | 99.9 | 9.12 (≈ 51.8 µM) |  |  |  |  | 
CCOC(=O)Cn1c(=N)n(CC(=O)OCC)c2cc(C)ccc21 | 55.87 | 176.58 (≈ 553 µM) | inactive | inactive | inactive | inactive | inactive
C[C@H]1c2cccc(O)c2C(=O)C2=C(O)[C@]3(O)C(=O)C(C(N)=O)=C(O)[C@@H](N(C)C)[C@@H]3[C@@H](O)[C@@H]21.O [DOXYCYCLINE] |  |  | 12.5 µg/mL | 6.25 µg/mL | 1.56 µg/mL | 0.78 µg/mL | 0.78 µg/mL
N=c1n(CC(=O)c2ccccc2)c2ccc([N+](=O)[O-])cc2n1CC(=O)c1ccccc1 | 23.43 | > 200 | inactive | inactive | 1000 µg/mL (≈ 2410 µM) | inactive | inactive
Cc1ccc2c(c1)n(CCCc1ccccc1)c(=N)n2CCCc1ccccc1 | 62.15 | 144.88 (≈ 378 µM) | inactive | 500 µg/mL (≈ 1300 µM) | 125 µg/mL (≈ 326 µM) | 500 µg/mL (≈ 1300 µM) | 16 µg/mL (≈ 41.7 µM)
Cc1c(C)c2c(c(C)c1O)CCC(C)(C(=O)O)O2 (stereo unspecified) [TROLOX] | 85.61 | 7.74 (≈ 30.9 µM) |  |  |  |  | 
CCOC(=O)Cn1c(=N)n(CC(=O)OCC)c2cc(C(=O)c3ccccc3)ccc21 | 74.04 | 141.89 (≈ 347 µM) | inactive | inactive | inactive | inactive | inactive
Cc1ccc2c(c1)n(CC(=O)c1ccccc1)c(=N)n2CC(=O)c1ccccc1 | 39.26 | > 200 | inactive | inactive | 500 µg/mL (≈ 1300 µM) | inactive | 500 µg/mL (≈ 1300 µM)

Continued, in another order:

inhibition (INH) [1] [%] | IC50 [2] [µg/mL] | Compound | MIC (Pseudomonas aeruginosa) | MIC [3] | MIC (Bacillus spizizenii) | MIC (Escherichia coli) | MIC (Staphylococcus aureus)
90.76 | 53.7 (≈ 134 µM) | O=C(c1ccccc1)c1ccc2c(c1)nc1s/c(=C\c3ccc(F)cc3)c(=O)n12 |  |  |  |  | 
60.8 | 85.51 (≈ 201 µM) | O=C(c1ccccc1)c1ccc2c(c1)nc1s/c(=C\c3ccc4c(c3)OCO4)c(=O)n12 |  |  |  |  | 
99.98 | 3.79 (≈ 21 µM) | O=C(O)/C=C/c1ccc(O)c(O)c1 [CAFFEIC ACID] |  |  |  |  | 
75.76 | 86.97 (≈ 217 µM) | O=C(c1ccccc1)c1ccc2c(c1)nc1s/c(=C\c3ccccc3F)c(=O)n12 |  |  |  |  | 
80.35 | 74.11 (≈ 180 µM) | COc1ccccc1/C=c1\sc2nc3cc(C(=O)c4ccccc4)ccc3n2c1=O |  |  |  |  | 
